Measurements: article PMC7088078 (Journal of Inorganic and Organometallic Polymers and …, 2008)
Structures can show the parent of a compound that is named as a salt.

Assays:
[1] = tested on: L929; test: Cytotoxicity assay; assay type: cell-based, mouse; details: trypan blue dye exclusion after 7 days, ± one SD
[2] = tested on: 143; test: Cytotoxicity assay; assay type: cell-based, human; details: trypan blue dye exclusion after 7 days, ± one SD
[3] = tested on: Vero; test: Cytotoxicity assay; assay type: cell-based, African green monkey; details: trypan blue dye exclusion after 7 days, ± one SD
[4] = tested on: BS-C-1; test: Cytotoxicity assay; assay type: cell-based, African green monkey; details: trypan blue dye exclusion after 7 days, ± one SD
[5] = tested on: Reovirus ST3; test: Plaque reduction assay; assay type: cell-based, reovirus serotype 3 (ST3) strain Dearing; details: Reovirus ST3 in L929 cells, ± one SD
[6] = tested on: Vaccinia WR; assay type: cell-based, Vaccinia virus, strain WR
[7] = tested on: HSV-1; test: Plaque reduction assay; assay type: cell-based, Herpes simplex virus 1, strain GHSV-UL46; details: HSV-1 in Vero cells; ± one SD
[8] = tested on: VZV; assay type: cell-based, Varicella Zoster virus, strain Ellen; details: VZV in BS-C-1 cells; ± one SD
[9] = tested on: reovirus, vaccinia, HSV-1, VZV; assay type: cell-based
[10] = tested on: L929; test: Chemotherapeutic activity; details: after 7 days, ± one SD
[11] = tested on: 143; test: Chemotherapeutic activity; details: after 7 days, ± one SD
[12] = tested on: Vero; test: Chemotherapeutic activity; details: after 7 days, ± one SD
[13] = tested on: BS-C-1; test: Chemotherapeutic activity; details: after 7 days, ± one SD
[14] = tested on: L929, 143, Vero, BS-C-1 cell lines; test: Cell inhibition as a function of drug concentration; details: Fig. 1; cell line not specified
[15] = tested on: HSV-1; details: cited from earlier work
[16] = tested on: vaccinia; details: cited from earlier work
[17] = tested on: ssRNA viruses; details: in words; cited from earlier work

## [Cl][Pt-2]([Cl])([Cl])[Cl].[K+].[K+] [Compound K2PtCl4, potassium tetrachloroplatinate(II)]
[1]
  MCC, minimum cytotoxicity concentration that causes a reduction in cell viability >10%: 100 ± 9.0 µg/mL
[2]
  MCC, minimum cytotoxicity concentration that causes a reduction in cell viability >10%: 75 ± 6.0 µg/mL
[3]
  MCC, minimum cytotoxicity concentration that causes a reduction in cell viability >10%: 100 ± 9.0 µg/mL
[4]
  MCC, minimum cytotoxicity concentration that causes a reduction in cell viability >10%: 75 ± 6.0 µg/mL
[5]
  MIC, minimum inhibitory concentration required to reduce virus plaque number by 50%: >100 µg/mL
[6]
  MIC, minimum inhibitory concentration required to reduce virus plaque number by 50%: >75 µg/mL
[7]
  MIC, minimum inhibitory concentration required to reduce virus plaque number by 50%: >100 µg/mL
[8]
  MIC, minimum inhibitory concentration required to reduce virus plaque number by 50%: >75 µg/mL
[9]
  inhibition of the tested viruses: little inhibition
[10]
  GI50 (50% reduction in cell growth): 200 ± 20.0 µg/mL
[11]
  GI50 (50% reduction in cell growth): 175 ± 12.0 µg/mL
[12]
  GI50 (50% reduction in cell growth): 200 ± 16.0 µg/mL
[13]
  GI50 (50% reduction in cell growth): 175 ± 20.0 µg/mL

## N.N.[Cl][Pt][Cl] [Cisplatin]
[5]
  MIC, minimum inhibitory concentration required to reduce virus plaque number by 50%: >25 µg/mL
[6]
  MIC, minimum inhibitory concentration required to reduce virus plaque number by 50%: >25 µg/mL
[7]
  MIC, minimum inhibitory concentration required to reduce virus plaque number by 50%: >25 µg/mL
[8]
  MIC, minimum inhibitory concentration required to reduce virus plaque number by 50%: >25 µg/mL
[10]
  GI50 (50% reduction in cell growth): 75 ± 6.0 µg/mL
[11]
  GI50 (50% reduction in cell growth): 50 ± 4.0 µg/mL
[12]
  GI50 (50% reduction in cell growth): 50 ± 4.0 µg/mL
[13]
  GI50 (50% reduction in cell growth): 50 ± 3.0 µg/mL
[14]
  GI50: about 50 μg/mL

## CCN(CC)CCOc1ccc2c(c1)C(=O)c1cc(OCCN(CC)CC)ccc1-2 [Tilorone hydrochloride, 2,7-bis[2-(9-diethylamino)ethoxy]-9H-fluorene-9-one]
[15]
  concentration shown to inhibit HSV-1: 10 µg/mL
[16]
  concentration shown to inhibit vaccinia: 10 µg/mL
[17]
  antiviral activity against ssRNA viruses: no antiviral activity

## Nc1nc2c(ncn2COCCO)c(=O)[nH]1 [Acyclovir]
[1]
  MCC, minimum cytotoxicity concentration that causes a reduction in cell viability >10%: 500 ± 42.0 µg/mL
[2]
  MCC, minimum cytotoxicity concentration that causes a reduction in cell viability >10%: 425 ± 32.0 µg/mL
[3]
  MCC, minimum cytotoxicity concentration that causes a reduction in cell viability >10%: 400 ± 42.0 µg/mL
[4]
  MCC, minimum cytotoxicity concentration that causes a reduction in cell viability >10%: 440 ± 39.0 µg/mL
[5]
  MIC, minimum inhibitory concentration required to reduce virus plaque number by 50%: >250 µg/mL
[5]; listed as acyclovir
  MIC, minimum inhibitory concentration required to reduce virus plaque number by 50%: > 250 µg/mL
[6]
  MIC, minimum inhibitory concentration required to reduce virus plaque number by 50%: >200 µg/mL
[7]
  MIC, minimum inhibitory concentration required to reduce virus plaque number by 50%: about 0.08 μg/mL
